Columns and labels:
Assay type in all cases: biochemical
[1] = target: T1, Human Tyk2 kinase domain (Homo sapiens, UniProt P29597); experiment: Tyk2 Inhibition Assay (Omnia kinase fluorescence peptide substrate assay); details: averaged IC50 ranges; assay of Example A; 10 μM (Km app) or 1 mM ATP, 2 nM Tyk2
T1 construct: comprising amino acids 886 to 1187 with 10 additional histidine residues; 10xHis (histidine tag) (C, cleaved yes); made in house
T1 sequence (P29597 886-1187): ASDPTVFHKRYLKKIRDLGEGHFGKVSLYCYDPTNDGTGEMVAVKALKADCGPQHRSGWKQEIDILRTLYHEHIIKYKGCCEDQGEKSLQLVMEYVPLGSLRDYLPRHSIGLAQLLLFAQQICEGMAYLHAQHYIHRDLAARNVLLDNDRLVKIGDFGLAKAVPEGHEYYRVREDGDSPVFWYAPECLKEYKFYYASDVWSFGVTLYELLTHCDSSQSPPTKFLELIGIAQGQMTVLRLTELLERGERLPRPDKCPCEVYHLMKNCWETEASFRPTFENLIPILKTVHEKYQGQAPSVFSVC
Method in brief: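 2 nM His-tag-cleaved kinase domain (aa 886–1187) with 8 μM Omnia Y12 peptide, 10 μM (Km app) or 1 mM ATP, pH 7.4 HEPES/10 mM MgCl2, 2% DMSO. Fluorescence (ex 360/em 485 nm) every 50 s for 45 min; IC50 from 4-parameter fit of POC, top dose 10 μM.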

[2] = target: T2, JAK2 (Homo sapiens, UniProt O60674); experiment: JAK2 Inhibition Assay (Omnia kinase fluorescence peptide substrate assay); details: averaged IC50 ranges; assay of Example C; 25 μM (Km app) or 1 mM ATP, 5 nM JAK2
T2 construct: purchased Invitrogen Corporation, Carlsbad, Calif; PV4288
T2 sequence (O60674 whole entry): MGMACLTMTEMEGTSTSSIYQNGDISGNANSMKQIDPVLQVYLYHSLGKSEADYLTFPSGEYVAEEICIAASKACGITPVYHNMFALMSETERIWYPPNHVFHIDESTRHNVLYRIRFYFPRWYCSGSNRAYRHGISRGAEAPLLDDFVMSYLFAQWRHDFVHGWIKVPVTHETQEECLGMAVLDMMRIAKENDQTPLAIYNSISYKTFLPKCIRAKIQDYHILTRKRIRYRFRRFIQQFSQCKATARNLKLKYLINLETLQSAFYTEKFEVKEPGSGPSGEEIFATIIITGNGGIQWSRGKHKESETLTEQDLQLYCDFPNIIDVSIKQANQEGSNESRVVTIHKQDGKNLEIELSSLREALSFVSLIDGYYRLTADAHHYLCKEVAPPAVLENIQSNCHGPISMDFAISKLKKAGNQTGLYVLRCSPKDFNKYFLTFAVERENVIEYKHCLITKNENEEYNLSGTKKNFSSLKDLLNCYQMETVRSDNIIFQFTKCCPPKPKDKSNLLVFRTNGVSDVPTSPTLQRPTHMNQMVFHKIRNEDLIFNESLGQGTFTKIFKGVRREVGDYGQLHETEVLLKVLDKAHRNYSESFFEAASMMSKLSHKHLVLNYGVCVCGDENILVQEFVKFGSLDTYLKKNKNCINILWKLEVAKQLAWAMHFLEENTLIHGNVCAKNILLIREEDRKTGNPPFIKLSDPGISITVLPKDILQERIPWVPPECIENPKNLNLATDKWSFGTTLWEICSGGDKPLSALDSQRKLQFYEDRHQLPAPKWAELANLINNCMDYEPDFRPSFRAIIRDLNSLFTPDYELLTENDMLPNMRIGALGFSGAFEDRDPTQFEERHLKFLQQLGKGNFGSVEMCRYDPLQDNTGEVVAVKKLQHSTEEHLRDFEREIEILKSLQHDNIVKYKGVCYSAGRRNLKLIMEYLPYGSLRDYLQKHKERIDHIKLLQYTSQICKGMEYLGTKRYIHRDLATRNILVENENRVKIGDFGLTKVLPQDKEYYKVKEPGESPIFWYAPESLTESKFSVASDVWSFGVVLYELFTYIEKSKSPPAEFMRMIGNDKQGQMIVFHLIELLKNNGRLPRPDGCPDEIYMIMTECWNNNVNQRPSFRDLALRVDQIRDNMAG
Method in brief: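 5 nM JAK2 phosphorylated 10 μM Omnia Y7 peptide with ATP at 25 μM (Km app) or 1 mM, in 25 mM HEPES pH 7.4, 10 mM MgCl2, 0.01% Triton X-100, 1 mM DTT, 2% DMSO. Fluorescence (360/485 nm) was read every 50 s for 45 min. 10-point 3-fold series from 10 μM; POC versus uninhibited and background controls, 4-parameter logistic IC50.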

[3] = target: T3, JAK1 (Homo sapiens, UniProt P23458); experiment: JAK1 Inhibition Assay (Omnia kinase fluorescence peptide substrate assay); details: averaged IC50 ranges; assay of Example B; 40 μM (Km app) or 1 mM ATP, 15 nM JAK1
T3 construct: purchased Invitrogen Corporation, Carlsbad, Calif; PV4775
T3 sequence (P23458 whole entry): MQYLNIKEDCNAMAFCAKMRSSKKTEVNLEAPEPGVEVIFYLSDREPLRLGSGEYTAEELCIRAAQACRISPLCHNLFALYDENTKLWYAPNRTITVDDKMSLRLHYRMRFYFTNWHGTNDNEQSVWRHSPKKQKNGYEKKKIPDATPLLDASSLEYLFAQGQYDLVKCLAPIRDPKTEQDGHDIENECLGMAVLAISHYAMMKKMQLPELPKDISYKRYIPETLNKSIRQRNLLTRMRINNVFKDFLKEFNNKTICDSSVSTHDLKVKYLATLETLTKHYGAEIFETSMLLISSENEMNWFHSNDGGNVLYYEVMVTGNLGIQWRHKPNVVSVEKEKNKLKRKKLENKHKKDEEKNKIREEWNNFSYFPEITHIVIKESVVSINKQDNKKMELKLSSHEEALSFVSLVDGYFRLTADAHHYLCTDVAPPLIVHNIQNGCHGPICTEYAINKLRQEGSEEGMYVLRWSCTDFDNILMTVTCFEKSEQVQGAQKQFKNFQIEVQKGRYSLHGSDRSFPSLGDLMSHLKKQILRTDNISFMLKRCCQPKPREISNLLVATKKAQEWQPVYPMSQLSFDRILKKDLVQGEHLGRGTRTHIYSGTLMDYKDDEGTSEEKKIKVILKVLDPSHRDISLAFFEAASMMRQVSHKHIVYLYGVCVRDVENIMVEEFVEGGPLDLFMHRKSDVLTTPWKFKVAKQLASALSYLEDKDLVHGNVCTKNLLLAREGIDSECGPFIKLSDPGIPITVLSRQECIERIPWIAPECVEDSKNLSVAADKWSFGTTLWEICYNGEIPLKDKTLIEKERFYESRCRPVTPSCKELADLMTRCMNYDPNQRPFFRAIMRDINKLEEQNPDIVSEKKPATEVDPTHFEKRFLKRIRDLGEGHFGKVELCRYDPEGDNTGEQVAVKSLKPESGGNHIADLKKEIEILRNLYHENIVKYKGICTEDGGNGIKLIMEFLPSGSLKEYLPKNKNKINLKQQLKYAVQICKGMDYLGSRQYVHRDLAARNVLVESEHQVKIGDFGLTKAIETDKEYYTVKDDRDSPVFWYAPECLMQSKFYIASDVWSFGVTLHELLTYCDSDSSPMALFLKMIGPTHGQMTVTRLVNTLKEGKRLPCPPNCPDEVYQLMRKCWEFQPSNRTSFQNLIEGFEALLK

[4] = target: T4, JAK3 (Homo sapiens, UniProt P52333); experiment: JAK3 Inhibition Assay (Omnia kinase fluorescence peptide substrate assay); details: averaged IC50 ranges; assay of Example D; 10 μM (Km app) or 1 mM ATP, 2.5 nM JAK3
T4 construct: purchased Invitrogen Corporation, Carlsbad, Calif; PV4080
T4 sequence (P52333 1-1124): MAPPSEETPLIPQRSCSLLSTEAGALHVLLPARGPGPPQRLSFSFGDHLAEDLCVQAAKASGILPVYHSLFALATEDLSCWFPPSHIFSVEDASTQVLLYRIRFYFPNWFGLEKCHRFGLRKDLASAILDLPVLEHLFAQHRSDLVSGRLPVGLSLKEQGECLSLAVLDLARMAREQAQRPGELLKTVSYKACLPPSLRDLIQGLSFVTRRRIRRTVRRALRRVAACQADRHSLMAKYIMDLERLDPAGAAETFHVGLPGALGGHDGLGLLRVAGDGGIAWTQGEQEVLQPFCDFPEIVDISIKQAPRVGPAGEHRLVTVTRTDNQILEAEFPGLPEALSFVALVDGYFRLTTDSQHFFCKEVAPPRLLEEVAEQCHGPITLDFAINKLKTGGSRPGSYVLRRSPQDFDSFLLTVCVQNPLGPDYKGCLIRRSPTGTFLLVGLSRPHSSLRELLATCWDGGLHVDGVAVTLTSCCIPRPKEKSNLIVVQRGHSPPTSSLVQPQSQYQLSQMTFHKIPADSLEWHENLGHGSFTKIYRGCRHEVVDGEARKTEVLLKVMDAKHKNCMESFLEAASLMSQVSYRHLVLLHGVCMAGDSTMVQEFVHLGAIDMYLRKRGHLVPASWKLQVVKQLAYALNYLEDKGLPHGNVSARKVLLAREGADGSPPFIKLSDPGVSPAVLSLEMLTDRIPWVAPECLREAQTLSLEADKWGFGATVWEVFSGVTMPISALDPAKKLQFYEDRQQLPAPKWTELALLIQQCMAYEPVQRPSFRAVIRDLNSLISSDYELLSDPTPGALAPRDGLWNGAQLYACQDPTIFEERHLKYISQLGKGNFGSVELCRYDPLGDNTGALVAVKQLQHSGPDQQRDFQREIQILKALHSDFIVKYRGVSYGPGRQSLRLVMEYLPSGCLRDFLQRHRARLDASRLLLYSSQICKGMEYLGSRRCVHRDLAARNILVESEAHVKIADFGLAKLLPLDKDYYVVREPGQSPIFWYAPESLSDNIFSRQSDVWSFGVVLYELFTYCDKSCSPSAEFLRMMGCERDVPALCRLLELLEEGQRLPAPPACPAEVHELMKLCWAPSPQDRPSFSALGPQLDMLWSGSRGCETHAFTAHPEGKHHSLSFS
Method in brief: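 Kinase at 2.5 nM with 10 µM Omnia Y7 peptide and 10 µM (Km app) or 1 mM ATP in 25 mM HEPES pH 7.4, 10 mM MgCl2, 1 mM DTT, 0.01% Triton X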

IC50 [1]	IC50 [2]	IC50 [3]	IC50 [4]	Structure (SMILES)
< 10 nM	10 to 100 nM	10 to 100 nM	100 to 1000 nM	Cn1cc(-c2cc3nccn3c(-c3cnn(C(CC#N)c4cccc(C(F)(F)F)c4)c3)n2)cn1 (stereo not shown) [Example 15, 3-(4-(7-(1-methyl-1H-pyrazol-4-yl)imidazo[1,2-c]pyrimidin-5-yl)-1H-pyrazol-1-yl)-3-(3-(trifiuoromethyl)phenyl)propanenitrile]
10 to 100 nM	10 to 100 nM	100 to 1000 nM	> 1000 nM	Cn1cc(-c2cc3nccn3c(-c3cnn(C(CC#N)c4ccncc4)c3)n2)cn1 (stereo not shown) [Example 8, 3-(4-(7-(1-methyl-1H-pyrazol-4-yl)imidazo[1,2-c]pyrimidin-5-yl)-1H-pyrazol-1-yl)-3-(pyridin-4-yl)propanenitrile]
10 to 100 nM	100 to 1000 nM	100 to 1000 nM	> 1000 nM	Cn1cc(-c2cc3nccn3c(-c3cnn(C4(CC#N)CN(S(=O)(=O)c5ccccc5)C4)c3)n2)cn1 [Example 99, 2-(3-(4-(7-(1-methyl-1H-pyrazol-4-yl)imidazo[1,2-c]pyrimidin-5-yl)-1H-pyrazol-1-yl)-1-(phenylsulfonyl)azetidin-3-yl)acetonitrile]
10 to 100 nM	100 to 1000 nM	100 to 1000 nM	> 1000 nM	CN1CCn2c(-c3cc4nccn4c(-c4cnn(C(CC#N)C5CC5)c4)n3)cnc2C1 (stereo not shown) [Example 57, 3-cyclopropyl-3-(4-(7-(7-methyl-5,6,7,8-tetrahydroimidazo[1,2-a]pyrazin-3-yl)imidazo[1,2-c]pyrimidin-5-yl)-1H-pyrazol-1-yl)propanenitrile]
< 10 nM	10 to 100 nM	100 to 1000 nM	> 1000 nM	Cn1cc(-c2cc3nccn3c(-c3cnn(C4(CC#N)CN(CC#N)C4)c3)n2)cn1 [Example 73, 2,2′-(3-(4-(7-(1-methyl-1H-pyrazol-4-yl)imidazo[1,2-c]pyrimidin-5-yl)-1H-pyrazol-1-yl)azetidine-1,3-diyl)diacetonitrile]
10 to 100 nM	100 to 1000 nM	> 1000 nM	> 1000 nM	CN1CCC(CC#N)(n2cc(-c3nc(-c4cnn(C)c4)cc4nccn34)cn2)CC1 [Example 28, 2-(1-methyl-4-(4-(7-(1-methyl-1H-pyrazol-4-yl)imidazo[1,2-c]pyrimidin-5-yl)-1H-pyrazol-1-yl)piperidin-4-yl)acetonitrile]
< 10 nM	10 to 100 nM	100 to 1000 nM	100 to 1000 nM	N#CCC(C1CC1)n1cc(-c2nc(-c3cnn(C4CCOCC4)c3)cc3nccn23)cn1 (stereo not shown) [Example 36, 3-cyclopropyl-3-(4-(7-(1-(tetrahydro-2H-pyran-4-yl)-1H-pyrazol-4-yl)imidazo[1,2-c]pyrimidin-5-yl)-1H-pyrazol-1-yl)propanenitrile]
< 10 nM	10 to 100 nM	100 to 1000 nM	100 to 1000 nM	Cn1cc(-c2cc3nccn3c(-c3cnn(C4(CC#N)CC5(CCC5)C4)c3)n2)cn1 [Example 160, 2-(2-(4-(7-(1-methyl-1H-pyrazol-4-yl)imidazo[1,2-c]pyrimidin-5-yl)-1H-pyrazol-1-yl)spiro[3.3]heptan-2-yl)acetonitrile]
< 10 nM	10 to 100 nM	100 to 1000 nM	> 1000 nM	Cn1cc(-c2cc3nccn3c(-c3ccn(C4(CC#N)CN(CC(F)(F)F)C4)n3)n2)ccc1=O [Example 145, 2-(3-(3-(7-(1-methyl-6-oxo-1,6-dihydropyridin-3-yl)imidazo[1,2-c]pyrimidin-5-yl)-1H-pyrazol-1-yl)-1-(2,2,2-trifluoroethyl)azetidin-3-yl)acetonitrile]
100 to 1000 nM	> 1000 nM	> 1000 nM	> 1000 nM	CC(=O)N1CC(CC#N)(n2cc(-c3nc(-c4cnn(C)c4)cc4nccn34)cn2)C1 [Example 63, 2-(1-Acetyl-3-(4-(7-(1-methyl-1H-pyrazol-4-yl)imidazo[1,2-c]pyrimidin-5-yl)-1H-pyrazol-1-yl)azetidin-3-yl)acetonitrile]
< 10 nM	10 to 100 nM	100 to 1000 nM	> 1000 nM	Cn1cc(-c2cc3nccn3c(-c3cnn(C4(CC#N)CC5(CCCC5)C4)c3)n2)cn1 [Example 161, 2-(2-(4-(7-(1-methyl-1H-pyrazol-4-yl)imidazo[1,2-c]pyrimidin-5-yl)-1H-pyrazol-1-yl)spiro[3.4]octan-2-yl)acetonitrile]
100 to 1000 nM	100 to 1000 nM	> 1000 nM	> 1000 nM	N#CCC(C1CC1)n1cc(-c2nc(-c3cnc4n3CCNC4)cc3nccn23)cn1 (stereo not shown) [Example 56, 3-Cyclopropyl-3-(4-(7-(5,6,7,8-tetrahydroimidazo[1,2-a]pyrazin-3-yl)imidazo[1,2-c]pyrimidin-5-yl)-1H-pyrazol-1-yl)propanenitrile]
< 10 nM	10 to 100 nM	10 to 100 nM	100 to 1000 nM	N#CCC1(n2cc(-c3nc(-c4cnn(C5CCC5)c4)cc4nccn34)cn2)CN(CC(F)(F)F)C1 [Example 103, 2-(3-(4-(7-(1-Cyclobutyl-1H-pyrazol-4-yl)imidazo[1,2-c]pyrimidin-5-yl)-1H-pyrazol-1-yl)-1-(2,2,2-trifluoroethyl)azetidin-3-yl)acetonitrile]
100 to 1000 nM	> 1000 nM	> 1000 nM	> 1000 nM	Cc1c(-c2nc(-c3cnn(C)c3)cc3nccn23)cnn1CCC#N [Example 107, 3-(5-methyl-4-(7-(1-methyl-1H-pyrazol-4-yl)imidazo[1,2-c]pyrimidin-5-yl)-1H-pyrazol-1-yl)propanenitrile]
10 to 100 nM	10 to 100 nM	100 to 1000 nM	100 to 1000 nM	Cn1cc(-c2cc3nccn3c(-c3cnn(C4(CC#N)CN(C(=O)CC(F)(F)F)C4)c3)n2)cn1 [Example 64, 2-(3-(4-(7-(1-Methyl-1H-pyrazol-4-yl)imidazo[1,2-c]pyrimidin-5-yl)-1H-pyrazol-1-yl)-1-(3,3,3-trifluoropropanoyl)azetidin-3-yl)acetonitrile]
< 10 nM	10 to 100 nM	100 to 1000 nM	> 1000 nM	CCS(=O)(=O)N1CC(CC#N)(n2cc(-c3nc(-c4cnn(C)c4)cc4nccn34)cn2)C1 [Example 97, 2-(1-(ethylsulfonyl)-3-(4-(7-(1-methyl-1H-pyrazol-4-yl)imidazo[1,2-c]pyrimidin-5-yl)-1H-pyrazol-1-yl)azetidin-3-yl)acetonitrile]

From patent US8962596B2 (Array BioPharma Inc., priority 2010, dated 2015)
